According to PMC12851007 (Angewandte Chemie (International Ed. in English), 2025):
Where a SMILES comes first, the peptide text is derived from it.

How the values were obtained:
[1] = CX4/LCG tandem membrane assay with subsequent addition of spermine (transient vs stable pores); assay type: in vitro ADME; details: TP10 0.2 µM or melittin 5 nM at 60 s, spermine 20 µM at 340 s, 10 mM Hepes, 175 mM glucose, pH 7.5
Experimental: This means that TP10 renders the vesicle membranes only transiently permeable, while after some time, the pores “close”, most likely due to equilibration of the inside and outside concentrations of TP10. At sufficiently low TP10 concentrations, the vesicles have consequently released only some of their content after a certain incubation time and no further release of encapsulated compounds is observed thereafter. The transient nature of the TP10 pores was also confirmed herein by the CX4/LCG tandem membrane assay (Figure 4, black line). […] At this point of time, the TP10 pores should be either closed, or there should be some remaining stable equilibrium pores, which are too small to allow efflux of relatively large CX4 and/or LCG (MW > 500 Da), but sufficiently large to allow CF efflux (MW = 376 Da). Closed pores would refer to the previously reported graded mechanism, whereas the latter would point toward an all‐or‐none release mechanism.^[ [12], [70] ^] […] The newly developed assay has therefore the added capacity to afford more fine‐grained mechanistic information on membrane activity.
The blue trace is a control to illustrate full dissociation of the CX4/LCG complex during vesicle lysis by TX‐100.
LysisLysis vesicle lysisvesicle lysis […]
calibration cocktail at 600 s. a) Original changes in fluorescence intensity of LCG ( λex = 369 nm, λem = […]

[2] = CX4/LCG supramolecular tandem membrane assay, EYPC vesicles; assay type: in vitro ADME; details: 25 µM lipid, EYPC⊃CX4/LCG-LUVs, 10 mM Hepes, pH 7.5, 25 °C; fractional activity at 590 s, Hill fit; error = SD of fit, n = 1
Experimental: Membrane Activity M easurements
Vesicle preparation. 100 µ L of a solution of 25 mg/ml of POPC in chloroform or 200 µ L of a solution of 25 mg/ml of EYPC in chloroform was purged with nitrogen and dried overnight under hi gh vacuum. The thin lipid film was rehydrated with 1 ml reh ydrati on buffer (= inside buffer, see Tabl e S2 ) b y agitation at room temperature for 30min and then subjected to 2 0 freeze- th aw c ycles (freezing in liquid nitro gen and thawing at 40 °C). […]
Ta b l e S 2. Combinations of lipids and inside and outside buffer for CX4/LCG -LUVs.
No. Lipid Inside buffer = rehydration buffer Outside buffer […]
Vesicle quality control. T o ensure the absence of the CX4/ LCG reporter pair in the ex travesicular ph ase, 20 µL of the collected liposome fr action w as diluted to 2 ml with outside buffer and the fluor escen ce (λ exc = 369 nm; λ em = 502 nm) was recorded during the addition of […]
A co nstant fluorescenc e intensity durin g the addition of the stron gl y bindin g sp ermine verified the complete removal o f unencapsulated materi al. The size distribution of the liposomes was confirmed b y DLS to be unimodal and in the range of 120 to 150 nm diameter. […] Subsequently, the time-dependent change in fluorescence intensity (λ exc = 369 nm; λ em = 502 nm) was record ed during addition of 20 µ L of peptide stock solutions of varying concentrations at 60 s. […]

For CC[C@H](C)[C@H](NC(=O)[C@H](CCCCN)NC(=O)[C@H](CCCCN)NC(=O)[C@H](C)NC(=O)[C@H](CC(C)C)NC(=O)[C@H](C)NC(=O)[C@H](C)NC(=O)[C@H](CC(C)C)NC(=O)[C@H](C)NC(=O)[C@H](CCCCN)NC(=O)[C@H](CC(C)C)NC(=O)[C@H](CC(N)=O)NC(=O)[C@@H](NC(=O)[C@H](CCCCN)NC(=O)CNC(=O)[C@H](CC(C)C)NC(=O)[C@H](CC(C)C)NC(=O)[C@H](Cc1ccc(O)cc1)NC(=O)CNC(=O)[C@H](C)N)[C@@H](C)CC)C(=O)N[C@@H](CC(C)C)C(=O)O [TP10], the “kind of pores (fluorescence response to spermine added after the peptide)” value [1] was “absence of stable TP10 pores”.

CC[C@H](C)[C@H](NC(=O)[C@H](CCCCN)NC(=O)[C@@H](NC(=O)[C@@H](N)CCC(N)=O)[C@@H](C)CC)C(=O)N[C@@H](Cc1c[nH]c2ccccc12)C(=O)N[C@@H](Cc1ccccc1)C(=O)N[C@@H](CCC(N)=O)C(=O)N[C@@H](CC(N)=O)C(=O)N[C@@H](CCCNC(=N)N)C(=O)N[C@@H](CCCNC(=N)N)C(=O)N[C@@H](CCSC)C(=O)N[C@@H](CCCCN)C(=O)N[C@@H](Cc1c[nH]c2ccccc12)C(=O)N[C@@H](CCCCN)C(=O)N[C@@H](CCCCN)C(=O)O (H-QIKIWFQNRRMKWKK-OH) gave an EC50 [2] of 14 ± 3 µM.
